The nature of data set [1]: Pharmacokinetics study in mice: erlotinib pretreatment, carbazeran and 4-oxo-carbazeran. In kind it is in vivo, BALB/c mice. Particulars: erlotinib 100 mg/kg p.o. How it is done: BALB/c mice (male, ∼8 weeks old) were purchased and housed at the Biological Resource Centre, Agency for Science, Technology and Research (A∗STAR). The experimental protocol was approved by the A∗STAR Institutional Review Board. […] Blood (12.5 μL) was drawn from the tail vein (with a needle prick) at various times (0.25, 0.5, 0.75, 1, 2, 3, 4, 6, and 8 hours) after carbazeran dosing. The blood samples were diluted 2 times with 12.5 μL of water. Acetonitrile containing the internal standard (carbazeran-d4, 4 nM in 75 μL acetonitrile and 3 nM in final sample volume of 100 μL) was added to the blood samples to precipitate proteins. […] Blank and standard calibration samples were prepared from control mice that were not treated with any chemicals. Pharmacokinetic data were analyzed by noncompartmental analysis using Phoenix WinNonlin 6.3 (Certara).
At the end of the last blood collection (8 hour post-carbazeran dosing), the mice were sacrificed. […] The tissue samples were homogenized, and a 12.5 μL aliquot of the homogenate was diluted with an equal volume of water. Acetonitrile containing the internal standard (carbazeran-d4, 4 nM in 75 μL acetonitrile and 3 nM in final sample volume of 100 μL) was added to the diluted tissue samples (25 μL) to precipitate the proteins.

On the set-up of data set [2]: method as in PMID 26330331. The note with it: mice, oral dosing; cited from earlier work.

We go through one molecule from paper PMC12881681 (Molecular Pharmacology, 2025).

In the case of `C#Cc1cccc(Nc2ncnc3cc(OCCOC)c(OCCOC)cc23)c1` [Erlotinib], in data set [1] (8 hours after carbazeran), the “concentration of 4-oxo-carbazeran metabolite in liver and kidneys” value is on record as “decreased the concentration”; the “concentration of carbazeran in liver and kidneys” value is on record as “increased the concentration”. Besides, in data set [1] (all time points to 8 h), the “concentration of 4-oxo-carbazeran metabolite in blood vs vehicle-treated control” value is “far lesser concentration” and the “concentration of carbazeran in blood vs vehicle-treated control” value was “greater concentration”. For the same molecule, in data set [2], the elimination half-life is 42 min.
